Experimental data as given in PMC6021035, “Insights into biological activity of ureidoamides with primaquine and amino acid moieties” (Journal of Enzyme Inhibition and Medicinal Chemistry, 2018).
≈ marks a conversion by molar mass, not a printed value.

Key:
Format in all cases: cell-based
[1] = test system: Aspergillus niger ATCC 16404; test: MIC determination (broth micro-dilution); conditions: ATCC16404
Description: (§1) Before analysis, compounds 5a–f were dissolved in 96% ethanol in a concentration of 2 mg/ml as stock solutions. Inoculums were prepared with fresh cultures of microbial strains, cultured on tryptic-soy agar or Sabouraud 2% (m/v) dextrose agar for 18 h (48–72 h for fungi) at 30 °C with physiological saline containing approximately […]. Inoculum density (0.5 McFarland units) was adjusted with a bio Mériex (France) densitometer. Minimum inhibitory concentration (MIC) was determined by the twofold micro-dilution method in Mu¨ller–Hinton broth for bacterial strains and RPMI 1640 + 2% m/v dextrose for fungi according to the EUCAST recommendations in a sterile 96-well flat-bottom plastic tissue culture plate. MIC was determined using a linear regression curve after incubation of compounds and reading the optical density at 570 nm using an iEMS microplate reader. […] All tests were performed in triplicate and expressed as the mean.

[2] = test system: Bacillus cereus ATCC 11778; test: MIC determination (broth micro-dilution); conditions: ATCC11778
Description: as §1

[3] = test system: Bacillus subtilis ATCC 6633; test: MIC determination (broth micro-dilution); conditions: ATCC6633
Description: as §1

[4] = test system: Burkholderia caepacia ATCC 25416; test: MIC determination (broth micro-dilution); conditions: ATCC25416
Description: as §1

[5] = test system: Candida albicans ATCC 10231; test: MIC determination (broth micro-dilution); conditions: ATCC10231
Description: as §1

[6] = test system: Candida albicans ATCC 90028; test: MIC determination (broth micro-dilution); conditions: ATCC90028
Description: as §1

[7] = test system: Candida kefyr ATCC 2512; test: MIC determination (broth micro-dilution); conditions: Kluyveromyces marxianus, ATCC2512
Description: as §1

[8] = test system: Candida krusei ATCC 14243; test: MIC determination (broth micro-dilution); conditions: Pichia kudriavzevii, ATCC14243
Description: as §1

[9] = test system: Candida parapsylosis ATCC 22019; test: MIC determination (broth micro-dilution); conditions: ATCC22019
Description: as §1

[10] = test system: Candida tropicalis ATCC 750; test: MIC determination (broth micro-dilution); conditions: ATCC750
Description: as §1

[11] = test system: Enterococcus faecalis ATCC 29212; test: MIC determination (broth micro-dilution); conditions: ATCC29212
Description: as §1

[12] = test system: Enterococcus hyrae ATCC 8043; test: MIC determination (broth micro-dilution); conditions: ATCC8043
Description: as §1

[13] = test system: Escherichia coli ATCC 10536; test: MIC determination (broth micro-dilution); conditions: ATCC10536
Description: as §1

[14] = test system: Escherichia coli ATCC 8739; test: MIC determination (broth micro-dilution); conditions: ATCC8739
Description: as §1

[15] = test system: Issatchenkia orientalis Kudrjanzev ATCC 6258; test: MIC determination (broth micro-dilution); conditions: Pichia kudriavzevii, ATCC6258
Description: as §1

[16] = test system: Kocuria rhizophila ATCC 9341; test: MIC determination (broth micro-dilution); conditions: ATCC9341
Description: as §1

[17] = test system: Pseudomonas aeruginosa ATCC 27853; test: MIC determination (broth micro-dilution); conditions: ATCC27853
Description: as §1

[18] = test system: Pseudomonas aeruginosa ATCC 9027; test: MIC determination (broth micro-dilution); conditions: ATCC9027
Description: as §1

[19] = test system: Staphylococcus aureus ATCC 25213; test: MIC determination (broth micro-dilution); conditions: ATCC25213
Description: as §1

[20] = test system: Staphylococcus aureus ATCC 25923; test: MIC determination (broth micro-dilution); conditions: ATCC25923
Description: as §1

[21] = test system: Staphylococcus aureus ATCC 6538; test: MIC determination (broth micro-dilution); conditions: ATCC6538
Description: as §1

[22] = test system: Candida kefyr ATCC 2512; test: Minimum biofilm eradication assay; conditions: Kluyveromyces marxianus, ATCC2512, 48 h, read-out: MBEC
Description: (§2) We tested the susceptibility of different bacterial and yeast strains to compounds 5a–f by determining the minimum biofilm eradication concentration (MBEC). The test was performed in a sterile 96-well flat-bottom plastic tissue culture plate (TPP, Switzerland). Each well was filled with 100 µl of bacterial (10^7 CFUs/ml) or yeast (5 × 10^6 CFUs/ml) suspension. When the possibility of inhibition of yeast biofilm formation was tested, the wells were pre-treated with FBS (250 µl per well). Negative controls contained broth only. Positive controls were performed using standard antibacterial and antifungal drugs gentamycin and amphotericin B, respectively. The plates were covered and incubated aerobically for 24 h (bacteria) or 48 h (yeast) at 37 °C. Following the incubation period, each well was aspirated and washed three times with 250 µl of PBS and vigorously shaken in order to remove all non-adherent bacteria/yeast. The remaining attached cells were fixed with methanol (15 min) and the plates were left to dry overnight. The formed biofilm was stained with crystal violet (1%, 5 min). Excess stain was rinsed by placing the plate under running tap water and the plates were left to dry for 24 h. Adherent cells were resolubilized with acetic acid (33%, v/v). The optical density of each well was measured at 570 nm using a Multiscan plate reader. The MBEC value represents the lowest compound dilution at which microorganisms fail to grow.

[23] = test system: Candida krusei ATCC 14243; test: Minimum biofilm eradication assay; conditions: Pichia kudriavzevii, ATCC14243, 48 h, read-out: MBEC
Description: as §2

[24] = test system: Candida parapsylosis ATCC 22019; test: Minimum biofilm eradication assay
Description: as §2

[25] = test system: Candida tropicalis ATCC 750; test: Minimum biofilm eradication assay; conditions: ATCC750, 48 h, read-out: MBEC
Description: as §2

[26] = test system: Enterococcus faecalis ATCC 29212; test: Minimum biofilm eradication assay
Description: as §2

[27] = test system: Escherichia coli ATCC 10536; test: Minimum biofilm eradication assay
Description: as §2

[28] = test system: Escherichia coli ATCC 8739; test: Minimum biofilm eradication assay
Description: as §2

[29] = test system: Pseudomonas aeruginosa ATCC 27853; test: Minimum biofilm eradication assay
Description: as §2

[30] = test system: Pseudomonas aeruginosa ATCC 9027; test: Minimum biofilm eradication assay
Description: as §2

[31] = test system: Staphylococcus aureus ATCC 25213; test: Minimum biofilm eradication assay
Description: as §2

[32] = test system: Staphylococcus aureus ATCC 6538; test: Minimum biofilm eradication assay
Description: as §2

| SMILES | MIC [1] [µg/mL] | MIC [2] [µg/mL] | MIC [3] [µg/mL] | MIC [4] [µg/mL] | MIC [5] [µg/mL] | MIC [6] [µg/mL] | MIC [7] [µg/mL] | MIC [8] [µg/mL] | MIC [9] [µg/mL] | MIC [10] [µg/mL] | MIC [11] [µg/mL] | MIC [12] [µg/mL] | MIC [13] [µg/mL] | MIC [14] [µg/mL] | MIC [15] [µg/mL] | MIC [16] [µg/mL] | MIC [17] [µg/mL] | MIC [18] [µg/mL] | MIC [19] [µg/mL] | MIC [20] [µg/mL] | further results |
| --- | --- | --- | --- | --- | --- | --- | --- | --- | --- | --- | --- | --- | --- | --- | --- | --- | --- | --- | --- | --- | --- |
| COc1cc(NC(C)CCCNC(=O)NC(C(=O)NC(c2ccccc2)c2ccc(Cl)cc2)c2ccccc2)c2ncccc2c1 (stereo not drawn) [Compound 5c, N-[(4-chlorophenyl)(phenyl)methyl]-2-[({4-[(6-methoxyquinolin-8-yl)amino]pentyl}carbamoyl)amino]-2-phenylacetamide] | > 100 | > 100 | > 100 | 70 (≈ 110 µM) | > 100 | > 100 | > 100 | > 100 | > 100 | > 100 | > 100 | > 100 | 60 (≈ 94.3 µM) | 60 (≈ 94.3 µM) | > 100 | > 100 | 25 (≈ 39.3 µM) | 50 (≈ 78.6 µM) | > 100 | > 100 | MIC [21]: > 100 µg/mL; minimal effective concentration [22]: > 100 µg/mL; minimal effective concentration [23]: > 100 µg/mL; MBEC [24]: >100 µg/mL; minimal effective concentration [25]: > 100 µg/mL; MBEC [26]: >100 µg/mL; MBEC [27]: 6.25 µg/mL; MBEC [28]: 6.25 µg/mL; MBEC [29]: 25 µg/mL; MBEC [30]: 50 µg/mL; MBEC [31]: >100 µg/mL; MBEC [32]: >100 µg/mL |
| COc1cc(NC(C)CCCN)c2ncccc2c1 (stereo not drawn) [PQ, 8-[(4-amino-1-methylbutyl)amino]-6-methoxyquinoline, reference compound] | > 100 | 70 (≈ 270 µM) | 80 (≈ 308 µM) | 80 (≈ 308 µM) | 90 (≈ 347 µM) | > 100 | 40 (≈ 154 µM) | > 100 | 25 (≈ 96.4 µM) | > 100 | > 100 | > 100 | 65 (≈ 251 µM) | 40 (≈ 154 µM) | > 100 | 50 (≈ 193 µM) | 65 (≈ 251 µM) | 70 (≈ 270 µM) | 70 (≈ 270 µM) | 45 (≈ 174 µM) | MIC [21]: 50 µg/mL (≈ 193 µM); minimal effective concentration [22]: 50 µg/mL; minimal effective concentration [23]: > 100 µg/mL; MBEC [24]: 50 µg/mL; minimal effective concentration [25]: > 100 µg/mL; MBEC [26]: >100 µg/mL; MBEC [27]: 25 µg/mL; MBEC [28]: 25 µg/mL; MBEC [29]: 50 µg/mL; MBEC [30]: 70 µg/mL; MBEC [31]: >100 µg/mL; MBEC [32]: 50 µg/mL |
| COc1cc(NC(C)CCCNC(=O)NC(C(=O)NC(c2ccccc2)c2ccc(Cl)cc2)c2ccc(Cl)cc2)c2ncccc2c1 (stereo not drawn) [Compound 5e, 2–(4-chlorophenyl)-N-[(4-chlorophenyl)(phenyl)methyl]-2-[({4-[(6-methoxyquinolin-8-yl)amino]pentyl}carbamoyl)amino]acetamide] | > 100 | > 100 | > 100 | > 100 | > 100 | > 100 | > 100 | > 100 | > 100 | > 100 | > 100 | > 100 | 45 (≈ 67.1 µM) | 60 (≈ 89.5 µM) | > 100 | > 100 | > 100 | > 100 | > 100 | > 100 | MIC [21]: > 100 µg/mL; minimal effective concentration [22]: 6.25 µg/mL; minimal effective concentration [23]: > 100 µg/mL; MBEC [24]: >100 µg/mL; minimal effective concentration [25]: > 100 µg/mL; MBEC [26]: >100 µg/mL; MBEC [27]: 50 µg/mL; MBEC [28]: 50 µg/mL; MBEC [29]: >100 µg/mL; MBEC [30]: >100 µg/mL; MBEC [31]: >100 µg/mL; MBEC [32]: >100 µg/mL |
